Data as given in patent EP1939191A1, “Furan derivatives, method of synthesis and uses thereof” (Neuropharma S.A., priority 2006, dated 2008).

Target: Recombinant human glycogen synthase kinase 3 beta (Homo sapiens, UniProt P49841)
Assay: GSK-3 beta inhibition assay (33P-ATP, GS-2 peptide substrate, phosphocellulose filter counting)
Format: biochemical
Conditions: result in percentage of enzyme activity (lower = more inhibition); for activity at 25 µM: test compound at 25µM; for activity at 50 µM: test compound at 50µM
Protocol: The GSK-3 beta activity of the compounds of formula (I) according to the present invention was determined by incubation of a mixture of recombinant human GSK-3 enzyme, a phosphate source and GSK-3 substrate in the presence and in the absence of the corresponding test compound, and by measuring the GSK-3 activity of this mixture. The compounds where tested at final concentrations of 25 and 50 µM.
Recombinant human glycogen synthase kinase 3 beta was assayed in MOPS 8 mM pH 7.3, EDTA 0.2 mM, MgCl2 10 mM and sodium orthovanadate 0.25 mM in the presence of 62.5 µM of Phospho-Glycogen Synthase Peptide-2 (GS-2), 0.5 µCi gamma-^33P-ATP and unlabelled ATP at a final concentration of 12.5 µM. The final assay volume was 20 µl. After incubation for 30 minutes at 30 °C, 15 µl aliquots were spotted onto P81 phosphocellulose papers. Filters were washed four times for at least 10 minutes each and counted with 1.5 ml of scintillation cocktail in a scintillation counter.
The compounds of formula (I) of the present invention where submitted to the above indicated assays, in order to determine both their GSK-3 inhibition activity and BACE activity inhibition. The results are indicated in Table I, in percentage of the respective enzyme activity.

Recombinant human glycogen synthase kinase 3 beta, sequence (P49841 whole entry): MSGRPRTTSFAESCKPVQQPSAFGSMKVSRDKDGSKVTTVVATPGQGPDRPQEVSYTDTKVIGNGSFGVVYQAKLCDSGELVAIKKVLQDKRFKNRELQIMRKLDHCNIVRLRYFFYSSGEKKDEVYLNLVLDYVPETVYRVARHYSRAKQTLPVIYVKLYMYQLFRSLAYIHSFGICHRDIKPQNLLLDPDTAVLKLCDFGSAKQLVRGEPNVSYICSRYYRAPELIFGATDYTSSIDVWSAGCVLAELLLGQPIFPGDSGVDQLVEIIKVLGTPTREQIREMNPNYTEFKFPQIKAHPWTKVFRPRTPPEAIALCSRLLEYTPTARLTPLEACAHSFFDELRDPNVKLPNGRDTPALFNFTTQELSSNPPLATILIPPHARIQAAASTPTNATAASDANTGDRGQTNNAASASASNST

activity at 25 µM [%]	SMILES	activity at 50 µM [%]
83.7	CC(=CCCC(C)C=CC=C(C)CCCc1ccoc1)CO (stereo not shown) [13-Furan-3-yl-2,6,10-trimethyl-trideca-2,7,9-trien-1-ol]	61.2
	CC(C)(C)[Si](OCCCSCc1ccco1)(c1ccccc1)c1ccccc1 [tert-Butyl-[3-(furan-2-ylmethylsulfanyl)-propoxy]-diphenyl-silane]	17.4
	CC(C)(C)[Si](OCCc1ccco1)(c1ccccc1)c1ccccc1 [tert-Butyl-(2-furan-2-yl-ethoxy)-diphenyl-silane]	47.6
83.7	CCOC(=O)C=C(C)CCCc1ccoc1 [6-Furan-3-yl-3-methyl-hex-2-enoic acid ethyl ester]	67.4
	CC(C)(C)[Si](OCCCCCCc1ccco1)(c1ccccc1)c1ccccc1 [tert-Butyl-(6-furan-2-yl-hexyloxy)-diphenyl-silane]	5.08
61.1	OCC=Cc1ccoc1 [3-Furan-3-yl-prop-2-en-1-ol]	55.6
	CC(C)(C)[Si](OCCCc1ccco1)(c1ccccc1)c1ccccc1 [tert-Butyl-(3-furan-2-yl-propoxy)-diphenyl-silane]	33.5
	CC(C)(C)[Si](OCC(O)c1ccco1)(c1ccccc1)c1ccccc1 (stereo not shown) [2-(tert-Butyl-diphenyl-silanyloxy)-1-furan-2-yl-ethanol]	48.6
	CC(C)(C)[Si](OCCCCCc1ccco1)(c1ccccc1)c1ccccc1 [tert-Butyl-(5-furan-2-yl-pentyloxy)-diphenyl-silane]	16.1
45	CC(=CC=CC(C)CCC=C(C)COC(=O)C(C)(C)C)CCCc1ccoc1 (stereo not shown) [2,2-Dimethyl-propionic acid 13-furan-3-yl-2,6,10-trimethyl-trideca-2,7,9-trienyl ester]	27

SMILES	activity at 25 µM [%]	activity at 50 µM [%]
CC(=CC=CC(C)CCCO[Si](c1ccccc1)(c1ccccc1)C(C)(C)C)CCCc1ccoc1 (stereo not shown) [tert-Butyl-(11-furan-3-yl-4,8-dimethyl-undeca-5,7-dienyloxy)-diphenyl-silane]	29	14
